Measured values reported in PubChem BioAssay AID1963978 (Molecular Pharmacology Branch, DTP, NCI, 2024).

System: 616215-338-R-J1-PDC spheroids with HUVEC/MSC, viability
Assay: Anticancer human tumor 616215-338-R-J1-PDC patient-derived colon adenocarcinoma cell line growth inhibition [PI3K]
Settings: for viability, T/C: stronger effect = lower value
How it was run: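 High-throughput combination screen: PI3K inhibitors crossed with targeted small molecules on complex spheroids of tumor cells, HUVEC and MSCs at 37 degrees C, 5% CO2. Top concentration was at or near clinical Cmax (otherwise 10 microM), with half-log decrements.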

[1] = curve of first compound, second compound 0.0316 µM
[2] = curve of first compound, second compound 0.1 µM
[3] = curve of first compound, second compound 0.316 µM
[4] = curve of first compound, second compound 1 µM
[5] = second compound 0.0316 µM, first compound 0.0316 µM
[6] = second compound 0.0316 µM, first compound 0.1 µM
[7] = second compound 0.0316 µM, first compound 0.316 µM
[8] = second compound 0.0316 µM, first compound 1 µM
[9] = second compound 0.0316 µM, first compound 3.16 µM
[10] = second compound 0.0316 µM, first compound 10 µM
[11] = second compound 0.1 µM, first compound 0.0316 µM
[12] = second compound 0.1 µM, first compound 0.1 µM
[13] = second compound 0.1 µM, first compound 0.316 µM
[14] = second compound 0.1 µM, first compound 1 µM
[15] = second compound 0.1 µM, first compound 3.16 µM
[16] = second compound 0.1 µM, first compound 10 µM
[17] = second compound 0.316 µM, first compound 0.0316 µM
[18] = second compound 0.316 µM, first compound 0.1 µM
[19] = second compound 0.316 µM, first compound 0.316 µM
[20] = second compound 0.316 µM, first compound 1 µM
[21] = second compound 0.316 µM, first compound 3.16 µM
[22] = second compound 0.316 µM, first compound 10 µM
[23] = second compound 1 µM, first compound 0.0316 µM
[24] = second compound 1 µM, first compound 0.1 µM
[25] = second compound 1 µM, first compound 0.316 µM
[26] = second compound 1 µM, first compound 1 µM
[27] = second compound 1 µM, first compound 3.16 µM
[28] = second compound 1 µM, first compound 10 µM
[29] = curve of first compound, second compound 3.16 µM
[30] = curve of first compound, second compound 10 µM
[31] = second compound 0.0316 µM, first compound 0.00316 µM
[32] = second compound 0.0316 µM, first compound 0.01 µM
[33] = second compound 0.1 µM, first compound 0.00316 µM
[34] = second compound 0.1 µM, first compound 0.01 µM
[35] = second compound 0.316 µM, first compound 0.00316 µM
[36] = second compound 0.316 µM, first compound 0.01 µM
[37] = second compound 1 µM, first compound 0.00316 µM
[38] = second compound 1 µM, first compound 0.01 µM
[39] = second compound 3.16 µM, first compound 0.00316 µM
[40] = second compound 3.16 µM, first compound 0.01 µM
[41] = second compound 3.16 µM, first compound 0.0316 µM
[42] = second compound 3.16 µM, first compound 0.1 µM
[43] = second compound 10 µM, first compound 0.00316 µM
[44] = second compound 10 µM, first compound 0.01 µM
[45] = second compound 10 µM, first compound 0.0316 µM
[46] = second compound 10 µM, first compound 0.1 µM
[47] = second compound 3.16 µM, first compound 0.316 µM
[48] = second compound 3.16 µM, first compound 1 µM
[49] = second compound 10 µM, first compound 0.316 µM
[50] = second compound 10 µM, first compound 1 µM
[51] = compound alone, run of 05/08/2023
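Further: spheroids exposed to agents for seven days before the viability read.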

Cn1nccc1Nc1nccc(-c2ccn(C(CO)c3ccc(Cl)c(F)c3)c(=O)c2)n1 (configuration not stated) + CC(Nc1ccc2c(c1)OCCn1cc(N3C(=O)OCC3C(F)F)nc1-2)C(N)=O
IC50 (curve of first compound, second compound 0.00316 µM): 4610 nM | IC50 (curve of first compound, second compound 0.01 µM): 3920 nM | IC50 [1]: 2320 nM | IC50 [2]: 1150 nM | IC50 [3]: 986 nM | IC50 [4]: 1240 nM | viability, T/C (second compound 0.00316 µM, first compound 0.0316 µM): 94.1% | viability, T/C (second compound 0.00316 µM, first compound 0.1 µM): 87% | viability, T/C (second compound 0.00316 µM, first compound 0.316 µM): 74.5% | viability, T/C (second compound 0.00316 µM, first compound 1 µM): 71.3% | viability, T/C (second compound 0.00316 µM, first compound 3.16 µM): 53.8% | viability, T/C (second compound 0.00316 µM, first compound 10 µM): 40.1% | viability, T/C (second compound 0.01 µM, first compound 0.0316 µM): 100% | viability, T/C (second compound 0.01 µM, first compound 0.1 µM): 97.6% | viability, T/C (second compound 0.01 µM, first compound 0.316 µM): 81.8% | viability, T/C (second compound 0.01 µM, first compound 1 µM): 71.1% | viability, T/C (second compound 0.01 µM, first compound 3.16 µM): 50.7% | viability, T/C (second compound 0.01 µM, first compound 10 µM): 41% | viability, T/C [5]: 86.8% | viability, T/C [6]: 103% | viability, T/C [7]: 87.7% | viability, T/C [8]: 58.3% | viability, T/C [9]: 54.2% | viability, T/C [10]: 38.4% | viability, T/C [11]: 96.8% | viability, T/C [12]: 91.6% | viability, T/C [13]: 78.1% | viability, T/C [14]: 50.8% | viability, T/C [15]: 38.8% | viability, T/C [16]: 33% | viability, T/C [17]: 92.5% | viability, T/C [18]: 100% | viability, T/C [19]: 66.8% | viability, T/C [20]: 52.6% | viability, T/C [21]: 37.4% | viability, T/C [22]: 29.1% | viability, T/C [23]: 96.8% | viability, T/C [24]: 93.7% | viability, T/C [25]: 72.5% | viability, T/C [26]: 44.9% | viability, T/C [27]: 40.5% | viability, T/C [28]: 6.88%

CC(=O)c1c(C)c2cnc(Nc3ccc(N4CCNCC4)cn3)nc2n(C2CCCC2)c1=O + Cc1nc(NC(=O)N2CCCC2C(N)=O)sc1-c1ccnc(C(C)(C)C(F)(F)F)c1
IC50 [1]: > 100 nM | IC50 [2]: > 100 nM | IC50 [3]: > 100 nM | IC50 [4]: > 100 nM | IC50 [29]: > 100 nM | IC50 [30]: > 100 nM | viability, T/C (second compound 0.0316 µM, first compound 0.000316 µM): 97.4% | viability, T/C (second compound 0.0316 µM, first compound 0.001 µM): 96.8% | viability, T/C [31]: 102% | viability, T/C [32]: 110% | viability, T/C [5]: 98% | viability, T/C [6]: 113% | viability, T/C (second compound 0.1 µM, first compound 0.000316 µM): 102% | viability, T/C (second compound 0.1 µM, first compound 0.001 µM): 95.7% | viability, T/C [33]: 105% | viability, T/C [34]: 87.9% | viability, T/C [11]: 104% | viability, T/C [12]: 111% | viability, T/C (second compound 0.316 µM, first compound 0.000316 µM): 109% | viability, T/C (second compound 0.316 µM, first compound 0.001 µM): 97.3% | viability, T/C [35]: 88.1% | viability, T/C [36]: 99.9% | viability, T/C [17]: 104% | viability, T/C [18]: 108% | viability, T/C (second compound 1 µM, first compound 0.000316 µM): 111% | viability, T/C (second compound 1 µM, first compound 0.001 µM): 108% | viability, T/C [37]: 97.2% | viability, T/C [38]: 100% | viability, T/C [23]: 103% | viability, T/C [24]: 91.7% | viability, T/C (second compound 3.16 µM, first compound 0.000316 µM): 91.8% | viability, T/C (second compound 3.16 µM, first compound 0.001 µM): 95.6% | viability, T/C [39]: 90.5% | viability, T/C [40]: 98.4% | viability, T/C [41]: 105% | viability, T/C [42]: 101% | viability, T/C (second compound 10 µM, first compound 0.000316 µM): 97.5% | viability, T/C (second compound 10 µM, first compound 0.001 µM): 93% | viability, T/C [43]: 90.5% | viability, T/C [44]: 93% | viability, T/C [45]: 91% | viability, T/C [46]: 97%

CCN1CCN(Cc2ccc(Nc3ncc(F)c(-c4cc(F)c5nc(C)n(C(C)C)c5c4)n3)nc2)CC1 + Cc1nc(NC(=O)N2CCCC2C(N)=O)sc1-c1ccnc(C(C)(C)C(F)(F)F)c1
IC50 [1]: > 1000 nM | IC50 [2]: > 1000 nM | IC50 [3]: > 1000 nM | IC50 [4]: > 1000 nM | IC50 [29]: > 1000 nM | IC50 [30]: > 1000 nM | viability, T/C [31]: 94% | viability, T/C [32]: 90.8% | viability, T/C [5]: 98.5% | viability, T/C [6]: 101% | viability, T/C [7]: 110% | viability, T/C [8]: 134% | viability, T/C [33]: 107% | viability, T/C [34]: 120% | viability, T/C [11]: 96.9% | viability, T/C [12]: 105% | viability, T/C [13]: 114% | viability, T/C [14]: 113% | viability, T/C [35]: 113% | viability, T/C [36]: 104% | viability, T/C [17]: 111% | viability, T/C [18]: 115% | viability, T/C [19]: 131% | viability, T/C [20]: 110% | viability, T/C [37]: 92.5% | viability, T/C [38]: 99% | viability, T/C [23]: 101% | viability, T/C [24]: 108% | viability, T/C [25]: 120% | viability, T/C [26]: 83.9% | viability, T/C [39]: 96.7% | viability, T/C [40]: 105% | viability, T/C [41]: 106% | viability, T/C [42]: 103% | viability, T/C [47]: 91.9% | viability, T/C [48]: 84.1% | viability, T/C [43]: 91.3% | viability, T/C [44]: 82.7% | viability, T/C [45]: 92.3% | viability, T/C [46]: 74.6% | viability, T/C [49]: 68.9% | viability, T/C [50]: 52.1%

CC(Nc1ccc2c(c1)OCCn1cc(N3C(=O)OCC3C(F)F)nc1-2)C(N)=O (configuration not stated)
viability, T/C (compound 0.00316 µM): 94.5% [middle of 8 runs] | viability, T/C (compound 0.01 µM): 96.4% [middle of 8 runs] | viability, T/C (compound 0.0316 µM): 100% [middle of 8 runs] | viability, T/C (compound 0.1 µM): 97.1% [middle of 8 runs] | viability, T/C (compound 0.316 µM): 98.8% [middle of 8 runs] | viability, T/C (compound 1 µM): 105% [middle of 8 runs] | IC50 [51]: > 1000 nM

CC(C)NCC(C(=O)N1CCN(c2ncnc3c2C(C)CC3O)CC1)c1ccc(Cl)cc1 (configuration not stated) + CC(Nc1ncnc2nc[nH]c12)c1cc2cccc(Cl)c2c(=O)n1-c1ccccc1
IC50 [1]: 4160 nM | IC50 [2]: 3770 nM | IC50 [3]: 4740 nM | IC50 [4]: 5080 nM | IC50 [29]: 4130 nM | IC50 [30]: 3540 nM | viability, T/C [5]: 91.7% | viability, T/C [6]: 93.4% | viability, T/C [7]: 94.4% | viability, T/C [8]: 87.2% | viability, T/C [9]: 57.9% | viability, T/C [10]: 24.9% | viability, T/C [11]: 103% | viability, T/C [12]: 86.7% | viability, T/C [13]: 91% | viability, T/C [14]: 94.2% | viability, T/C [15]: 54.8% | viability, T/C [16]: 23.5% | viability, T/C [17]: 90.5% | viability, T/C [18]: 95% | viability, T/C [19]: 83.7% | viability, T/C [20]: 94% | viability, T/C [21]: 65.2% | viability, T/C [22]: 21.9% | viability, T/C [23]: 90.3% | viability, T/C [24]: 90.8% | viability, T/C [25]: 101% | viability, T/C [26]: 109% | viability, T/C [27]: 67.2% | viability, T/C [28]: 25.4% | viability, T/C [41]: 89.2% | viability, T/C [42]: 101% | viability, T/C [47]: 99.8% | viability, T/C [48]: 79.9% | viability, T/C (second compound 3.16 µM, first compound 3.16 µM): 58.4% | viability, T/C (second compound 3.16 µM, first compound 10 µM): 26.2% | viability, T/C [45]: 105% | viability, T/C [46]: 104% | viability, T/C [49]: 100% | viability, T/C [50]: 91.7% | viability, T/C (second compound 10 µM, first compound 3.16 µM): 52.2% | viability, T/C (second compound 10 µM, first compound 10 µM): 27.8%

Cc1nc(NC(=O)N2CCCC2C(N)=O)sc1-c1ccnc(C(C)(C)C(F)(F)F)c1 (configuration not stated)
viability, T/C (compound 0.0316 µM): 97.3% [middle of 8 runs] | viability, T/C (compound 0.1 µM): 102% [middle of 8 runs] | viability, T/C (compound 0.316 µM): 106% [middle of 8 runs] | viability, T/C (compound 1 µM): 108% [middle of 8 runs] | viability, T/C (compound 3.16 µM): 100% [middle of 8 runs] | viability, T/C (compound 10 µM): 99.5% [middle of 8 runs] | IC50 [51]: > 10000 nM
